# Results as given in ChEMBL document CHEMBL1201862, “PubChem BioAssay data set” (2004).
# Calls of active or inactive are those of the source. Rule as the data show it, for most assays here: actives have a measured EC50 and inactives only a lower limit.
# Assays:
# [1] = target: T1, Calpain-2 catalytic subunit (Sus scrofa, UniProt P43367); test: pig calpain II inhibitor potency, dose response, biochemical, fluorogenic peptide substrate (AID 1420); type: functional
# T1 sequence (P43367 whole entry): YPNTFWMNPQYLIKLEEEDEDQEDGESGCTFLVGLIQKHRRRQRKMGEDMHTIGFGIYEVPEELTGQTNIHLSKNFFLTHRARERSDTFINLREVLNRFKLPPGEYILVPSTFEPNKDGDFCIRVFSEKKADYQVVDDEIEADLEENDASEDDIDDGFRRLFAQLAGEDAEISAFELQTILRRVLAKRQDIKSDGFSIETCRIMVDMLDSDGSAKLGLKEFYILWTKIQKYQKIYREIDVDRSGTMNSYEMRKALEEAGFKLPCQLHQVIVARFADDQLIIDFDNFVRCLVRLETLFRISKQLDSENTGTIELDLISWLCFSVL
# [2] = target: Luciferin 4-monooxygenase (Photinus pyralis, UniProt P08659); test: firefly luciferase enzyme inhibitors, dose response, biochemical, luminescence (AID 1891)
# [3] = Luminescence Cell-Based Dose Confirmation HTS to Identify Inhibitors of Platelet Dense Granule Release. [Related pubchem assays: 1663 (Primary HTS), 1678 (Summary of Project)]; type: functional
# [4] = HEp-2 cell cytotoxicity, dose response, cytotoxicity control for RSV inhibitor project, HTS (AID 2410); type: functional; settings: human respiratory syncytial virus
# [5] = Luminescence Cell-Based Dose Confirmation HTS to Identify Activators of 5'UTR Stem-Loop Driven Alpha-Synuclein mRNA Translation in H4 Neuroglioblastoma Cells. [Related pubchem assays: 1829 (Project Summary), 1814 (Primary HTS)]; type: functional
# [6] = Luminescence Cell-Based Dose Response HTS to Identify Activators of Luciferase Translation or Activity in H4 […] Cells. [Related pubchem assays: 1829 (Project Summary), 1814 (Primary HTS)]; type: functional
# H4 = test: Luminescence Cell-Based Dose Response HTS to Identify Activators of 5'UTR Stem-Loop Driven Prion Protein mRNA Translation in H4 Neuroglioblastoma Cells. [Related pubchem assays: 1829 (Project Summary), 1814 (Primary HTS)]; type: functional; settings: Homo sapiens
# [7] = NIH-3T3 fibroblast cytotoxicity, dose response, cytotoxicity control, cell-based, fluorescence, Alamar Blue, secondary assay (AID 2327); type: functional;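 also: NIH-3T3 mouse fibroblasts cultured with fluconazole at 8 µg/mL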
# [8] = C. albicans growth with fluconazole, confirmation, fluorescence, retest (AID 2467); type: functional, cell-based
# Protein RecA = target: T2, Protein RecA (Mycobacterium tuberculosis, UniProt P9WHJ3); test: Fluorescence Cell-Free Homogeneous Dose Retest to Identify Inhibitors of RecA-Intein Splicing Activity. [Related pubchem assays (depositor defined):AID2097, AID2223, AID489010, AID492950]; type: functional
# T2 sequence (P9WHJ3 whole entry): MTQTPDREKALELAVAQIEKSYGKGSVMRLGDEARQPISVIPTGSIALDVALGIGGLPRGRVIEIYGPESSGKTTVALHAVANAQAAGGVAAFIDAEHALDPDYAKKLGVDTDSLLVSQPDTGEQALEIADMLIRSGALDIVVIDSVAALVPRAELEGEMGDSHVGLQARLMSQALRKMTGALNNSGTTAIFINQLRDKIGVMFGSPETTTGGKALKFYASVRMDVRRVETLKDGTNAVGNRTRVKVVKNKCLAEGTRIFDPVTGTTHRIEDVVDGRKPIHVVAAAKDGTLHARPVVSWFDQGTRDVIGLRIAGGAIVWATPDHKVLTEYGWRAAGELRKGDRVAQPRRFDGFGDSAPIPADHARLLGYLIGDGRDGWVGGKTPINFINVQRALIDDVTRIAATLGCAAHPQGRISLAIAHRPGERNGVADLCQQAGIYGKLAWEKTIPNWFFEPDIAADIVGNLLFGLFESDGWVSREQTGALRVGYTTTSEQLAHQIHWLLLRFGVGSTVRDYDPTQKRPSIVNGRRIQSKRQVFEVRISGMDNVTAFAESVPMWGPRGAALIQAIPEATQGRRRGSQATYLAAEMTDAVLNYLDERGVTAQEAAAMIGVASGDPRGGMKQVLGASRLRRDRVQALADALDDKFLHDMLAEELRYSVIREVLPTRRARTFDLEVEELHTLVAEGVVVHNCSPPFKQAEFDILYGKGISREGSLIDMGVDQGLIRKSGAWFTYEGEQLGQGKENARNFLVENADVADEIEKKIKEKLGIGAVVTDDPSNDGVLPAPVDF
# [9] = target: T3, Rac GTPase-activating protein 1 (Homo sapiens, UniProt Q9H0H5); test: MgcRacGAP GTPase-activating activity inhibitors, confirmation, biochemical, ADP Hunter fluorescence, primary and confirmatory (AID 624330); type: functional
# T3 sequence (Q9H0H5 whole entry): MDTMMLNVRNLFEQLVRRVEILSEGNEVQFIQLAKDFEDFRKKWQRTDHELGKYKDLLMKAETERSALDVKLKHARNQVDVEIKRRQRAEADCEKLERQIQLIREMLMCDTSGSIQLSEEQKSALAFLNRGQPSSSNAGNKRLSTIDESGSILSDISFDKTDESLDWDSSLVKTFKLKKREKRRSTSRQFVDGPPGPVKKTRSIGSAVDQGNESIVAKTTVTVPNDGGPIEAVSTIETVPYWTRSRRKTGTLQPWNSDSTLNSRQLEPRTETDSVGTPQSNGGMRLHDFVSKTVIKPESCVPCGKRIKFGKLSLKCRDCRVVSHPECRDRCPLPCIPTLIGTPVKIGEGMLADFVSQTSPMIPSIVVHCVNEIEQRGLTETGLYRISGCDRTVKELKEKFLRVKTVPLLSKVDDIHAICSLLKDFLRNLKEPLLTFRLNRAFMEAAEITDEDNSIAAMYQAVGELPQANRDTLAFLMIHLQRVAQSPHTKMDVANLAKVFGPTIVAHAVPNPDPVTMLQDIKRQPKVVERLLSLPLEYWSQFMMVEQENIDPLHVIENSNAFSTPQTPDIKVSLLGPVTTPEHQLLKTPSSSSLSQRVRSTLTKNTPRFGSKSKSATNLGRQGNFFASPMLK
# Sequence of Luciferin 4-monooxygenase (P08659 whole entry): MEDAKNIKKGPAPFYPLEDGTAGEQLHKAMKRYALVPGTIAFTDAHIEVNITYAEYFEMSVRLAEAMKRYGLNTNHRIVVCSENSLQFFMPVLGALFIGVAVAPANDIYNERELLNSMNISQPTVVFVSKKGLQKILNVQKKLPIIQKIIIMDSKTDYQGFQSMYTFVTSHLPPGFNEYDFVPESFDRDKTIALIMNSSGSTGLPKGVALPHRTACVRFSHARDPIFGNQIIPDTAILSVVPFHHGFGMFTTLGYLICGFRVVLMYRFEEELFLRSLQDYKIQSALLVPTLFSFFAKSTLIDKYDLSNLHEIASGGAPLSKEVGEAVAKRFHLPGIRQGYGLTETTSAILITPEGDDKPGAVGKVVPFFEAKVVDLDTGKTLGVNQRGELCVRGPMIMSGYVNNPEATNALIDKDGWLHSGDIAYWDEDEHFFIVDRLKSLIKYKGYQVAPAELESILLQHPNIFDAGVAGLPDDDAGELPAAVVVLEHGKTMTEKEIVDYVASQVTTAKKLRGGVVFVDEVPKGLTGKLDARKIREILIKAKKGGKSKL
compound,measurement,setting,value
CCOC(=O)N1CCN(CC(=O)Nc2sccc2C#N)CC1,IC50,[1],33.6 µM (not active)
CSc1nc(N)n2nc(-c3ccccc3)cc2n1,EC50,[2],3.8 µM (active)
same,EC50,[3],5.68 µM (active)
Cc1ccc(Cl)cc1N1CCN(C(=O)CCCn2c(=O)c3cccn3c3cccnc32)CC1,CC50,[4],12.1 µM (active)
O=C1CC2C(=O)NCCN2C(NC(=O)c2ccc(Cl)cc2)=N1 (stereo not drawn),IC50,[1],0.931 µM (not active)
COc1ccc(/C(=C/Nc2cccc(Br)c2)C(C)=O)cc1OC,IC50,[1],9 µM (not active)
O=C1c2ccccc2S(=O)(=O)c2cc(N3CCc4ccccc4C3)ccc21,EC50,[5],14 µM (active)
same,EC50,[6],16.3 µM (active)
same,EC50,H4,15.6 µM (active)
O=C(NCc1ccccn1)C(=O)Nc1ccccc1,EC50,[5],46.3 µM (active)
same,EC50,[6],27.2 µM (active)
same,EC50,H4,13 µM (active)
CCCCCOc1ccc(CSc2n[nH]c(C)n2)cc1,EC50,[5],63 µM (active)
same,EC50,[6],14.5 µM (active)
same,EC50,H4,20.8 µM (active)
CCOC(=O)c1sc(NC(=O)CC(C)c2ccccc2)nc1C (stereo not drawn),EC50,[2],> 112 µM (not active)
same,EC50,[3],> 112 µM (not active)
N#Cc1c(-c2ccc(Cl)cc2)cc(-c2ccccc2)nc1SCC(=O)O,EC50,[7],134 µM (active)
same,EC50,[8],1.57 µM (active)
O=C(Nc1ccc(F)c(Cl)c1)NC1CC1,EC50,[7],> 150 µM (inactive)
same,EC50,[8],2.1 µM (active)
COc1ccc(N(C(=O)c2ccc(F)cc2)C2=CC3CCC(C2)N3C)cc1 (stereo not drawn),EC50,[2],> 112 µM (not active)
same,EC50,[3],> 112 µM (not active)
COc1ccccc1C1CC(c2ccco2)=NN1S(C)(=O)=O (stereo not drawn),EC50,[7],> 160 µM (inconclusive)
same,EC50,[8],> 38 µM (not active)
N#C/C(=C(/O)CN1C(=O)c2ccccc2C1=O)c1nc2ccccc2[nH]1,IC50,[1],2.28 µM (not active)
O=C(O)CC1Sc2ccccc2NC1=O (stereo not drawn),EC50,[2],> 112 µM (not active)
same,EC50,[3],> 112 µM (not active)
N#Cc1cc2c(nc1SCc1nc3ccccc3[nH]1)CCC2,CC50,[4],38 µM (active)
CCN(c1ccc(OCC(=O)OCC(=O)Nc2ccc(F)c(F)c2F)cc1)S(=O)(=O)c1ccccc1,IC50,[1],3.96 µM (not active)
CC1=C(C(=O)OCc2ccccc2)C(c2cccs2)N2C(=O)CCSC2=N1 (stereo not drawn),IC50,[1],8.99 µM (not active)
COc1ccccc1N1CCN(/N=C/c2cc([N+](=O)[O-])ccc2Cl)CC1,CC50,[4],29 µM (active)
COc1ccc(/C=N/Nc2nccnc2Cl)cc1,EC50,[2],3.76 µM (active)
same,EC50,[3],1.15 µM (active)
C=CCn1c(CCCNC(=O)c2ccccc2OC)nc2ccccc21,IC50,[1],13.2 µM (not active)
CCOC(=O)CN(C(=O)CSc1n[nH]c2c3cc(F)ccc3nc-2n1)c1ccccc1,IC50,[1],5.94 µM (not active)
Cc1cccc(N2CCN(C(=O)c3ccc4c(c3)CCN4S(C)(=O)=O)CC2)c1C,CC50,[4],38.3 µM (active)
O=C(CC1CCCCC1)NCc1ccccc1Cl,EC50,[5],> 120 µM (not active)
same,EC50,[6],14.1 µM (active)
same,EC50,H4,> 120 µM (not active)
CCOC(=O)c1[nH]c2ccc(OC)cc2c1N=C(S)N1CCN(C(=O)OCC)CC1,EC50,[2],> 112 µM (not active)
same,EC50,[3],> 112 µM (not active)
CC(=O)c1cccc(NC(=S)NC(=O)c2ccc(C)cc2)c1,EC50,[7],> 160 µM (inactive)
same,EC50,[8],> 38 µM (not active)
Cc1ccc(C2CC(C(F)F)n3ncc(C(=O)Nc4cnn(Cc5ccccc5C)c4)c3N2)cc1 (stereo not drawn),CC50,[4],19.4 µM (active)
CNC(=O)c1cc(S(=O)(=O)N(C)C)ccc1Cl,EC50,[2],> 112 µM (not active)
same,EC50,[3],> 112 µM (not active)
Cc1ccc(N(CCCCN2C(=O)c3ccccc3C2=O)C(=O)c2cccs2)cc1,CC50,[4],38.9 µM (active)
O=C(c1cc2ccccc2oc1=O)N(c1ccc(Cl)cc1)C1C=CS(=O)(=O)C1 (stereo not drawn),EC50,[5],13.6 µM (active)
same,EC50,[6],36.3 µM (active)
same,EC50,H4,> 120 µM (not active)
CN(C(=O)CSc1nncn1C)C1CCCN(Cc2ccccc2F)C1 (stereo not drawn),EC50,[2],> 112 µM (not active)
same,EC50,[3],> 112 µM (not active)
O=C(Nc1ccccc1)C1=C[C@@H](c2ccccc2)C[C@@H](OCc2ccc(CO)cc2)O1,EC50,[5],7.69 µM (active)
same,EC50,[6],> 120 µM (not active)
same,EC50,H4,14.2 µM (active)
S=C(c1ccc2c(c1)OCO2)N1CCCCC1,EC50,[2],> 112 µM (not active)
same,EC50,[3],> 112 µM (not active)
O=C(Nc1ccc2c(c1)OCO2)C1CC(c2c(F)cccc2Cl)=NO1 (stereo not drawn),EC50,[5],3.83 µM (active)
same,EC50,[6],25.6 µM (active)
same,EC50,H4,13.6 µM (active)
O=C(Nc1cccnc1)C1CCN(S(=O)(=O)c2cccs2)CC1,EC50,[5],> 120 µM (not active)
same,EC50,[6],> 120 µM (not active)
same,EC50,H4,> 120 µM (not active)
CC(NC(=O)c1ccccc1)c1ccc(F)cc1 (stereo not drawn),IC50,[1],> 50 µM (not active)
CCOC(=O)C1CCN(Cc2cc(C(C)C)c(O)c(C(C)C)c2)CC1,EC50,Protein RecA,> 380 µM (inactive)
O=C(O)c1ccc(/C=N\Nc2ccccn2)cc1,EC50,[2],3.56 µM (active)
same,EC50,[3],2.54 µM (active)
Cc1cc(C(=O)CSc2nc3ccccc3o2)c(C)n1C1CC1,EC50,[5],35.7 µM (active)
same,EC50,[6],0.905 µM (active)
O=C(NCC(O)c1ccccc1)c1ccc(Cl)c(S(=O)(=O)N2CCCC2)c1 (stereo not drawn),EC50,[5],37.8 µM (active)
same,EC50,[6],14.9 µM (active)
COc1ccc(CN2C(=O)/C(=C\NNC(=O)c3cccnc3)c3ccccc3C2=O)cc1,EC50,[7],27.4 µM (active)
same,EC50,[8],1.32 µM (active)
same,IC50,[9],137 µM (active)
CCCCC(=O)Nc1ccc(C(=O)c2ccccc2)cc1,IC50,[1],> 50 µM (not active)
CCCCNc1nnc(SCC(=O)N2CCN(S(=O)(=O)c3ccc4ccccc4c3)CC2)s1,CC50,[4],> 50 µM (active)
Cc1ccc(/C=C/C(=O)c2c(C)cc(C)nc2O)cc1,CC50,[4],17.7 µM (active)
CCOc1ccc2nc(SCC(=O)N3CCN(C(=O)c4ccco4)CC3)sc2c1,CC50,[4],22.8 µM (active)
COc1ccccc1NC(=O)Cn1cnc2c(cnn2-c2ccccc2)c1=O,EC50,[7],> 150 µM (inactive)
same,EC50,[8],> 38 µM (not active)
Cc1cc(C)nc(NC2=NCCS2)n1,EC50,[2],> 112 µM (not active)
same,EC50,[3],> 112 µM (not active)
